# Experimental data reported in ChEMBL document CHEMBL1201862, “PubChem BioAssay data set” (2004).
# Calls of active or inactive are those of the source.
# Legend:
# Bcl-2-like protein 10 = target: T1, Bcl-2-like protein 10 (Homo sapiens, UniProt Q9HD36); test: displacers of TR3 peptide from Bcl-B, primary screen, selectivity assay for Bfl-1 inhibitor project, biochemical, fluorescence polarization, FITC-TR3 peptide (AID 748);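 further: fluorescence polarization from a fluorescein-labelled TR3 peptide binding purified Bcl-B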
# T1 sequence (Q9HD36 whole entry): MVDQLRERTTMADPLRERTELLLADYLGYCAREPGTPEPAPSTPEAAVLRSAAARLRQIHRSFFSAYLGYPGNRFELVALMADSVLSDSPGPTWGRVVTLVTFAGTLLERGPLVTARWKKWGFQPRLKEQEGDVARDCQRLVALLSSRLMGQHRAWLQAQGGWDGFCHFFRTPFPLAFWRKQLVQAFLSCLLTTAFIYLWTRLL
# Estrogen receptor beta [1] = target: T2, Estrogen receptor beta (Homo sapiens, UniProt Q92731);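 further: recombinant ER-beta bound to coactivator SRC1 peptide in presence of estradiol agonist; inhibitors block coactivator peptide binding and lower the FRET signal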
# T2 sequence (Q92731 whole entry, the tested form may be a part): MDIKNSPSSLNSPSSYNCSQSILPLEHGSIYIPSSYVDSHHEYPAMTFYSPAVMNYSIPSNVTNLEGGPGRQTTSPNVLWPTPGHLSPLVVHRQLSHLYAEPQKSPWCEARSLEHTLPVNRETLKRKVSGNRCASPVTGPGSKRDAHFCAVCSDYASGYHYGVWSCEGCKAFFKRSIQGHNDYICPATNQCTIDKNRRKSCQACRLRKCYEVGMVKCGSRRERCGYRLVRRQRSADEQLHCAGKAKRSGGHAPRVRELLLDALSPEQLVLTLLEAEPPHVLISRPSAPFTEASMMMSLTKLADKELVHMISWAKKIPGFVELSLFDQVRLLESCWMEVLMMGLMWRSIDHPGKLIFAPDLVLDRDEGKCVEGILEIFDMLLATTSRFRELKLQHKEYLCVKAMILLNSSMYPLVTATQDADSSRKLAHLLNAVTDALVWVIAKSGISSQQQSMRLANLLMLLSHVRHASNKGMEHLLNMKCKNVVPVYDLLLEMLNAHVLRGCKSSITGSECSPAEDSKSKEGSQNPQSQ
# [2] = target: T3, Carboxy-terminal domain RNA polymerase II polypeptide A small phosphatase 1 (Homo sapiens, UniProt Q9GZU7); test: inhibitors of CTDSP1, concentration-response testing, biochemical assay, absorbance-based, actives from ultra-high-throughput screening (AID 540297); assay type: functional
# T3 sequence (Q9GZU7 whole entry): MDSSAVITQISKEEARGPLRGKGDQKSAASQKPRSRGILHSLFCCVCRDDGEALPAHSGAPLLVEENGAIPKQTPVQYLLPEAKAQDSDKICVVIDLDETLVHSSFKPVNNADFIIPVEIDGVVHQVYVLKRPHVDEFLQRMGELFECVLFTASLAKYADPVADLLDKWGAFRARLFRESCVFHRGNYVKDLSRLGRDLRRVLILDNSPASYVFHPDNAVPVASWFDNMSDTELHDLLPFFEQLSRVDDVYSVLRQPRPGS
# Estrogen receptor beta [3] = target: T2, Estrogen receptor beta; test: ERβ–SRC-3 coactivator interaction inhibitors, confirmation, orthogonal assay, biochemical, ELISA, streptavidin-HRP readout (AID 1060)
# [4] = target: Luciferin 4-monooxygenase (Photinus pyralis, UniProt P08659); test: Counter Screen for Luciferase-based Assay Positives. [Related pubchem assays: 620, 618, 411 ]
# Luciferin 4-monooxygenase, sequence (P08659 whole entry, the tested form may be a part): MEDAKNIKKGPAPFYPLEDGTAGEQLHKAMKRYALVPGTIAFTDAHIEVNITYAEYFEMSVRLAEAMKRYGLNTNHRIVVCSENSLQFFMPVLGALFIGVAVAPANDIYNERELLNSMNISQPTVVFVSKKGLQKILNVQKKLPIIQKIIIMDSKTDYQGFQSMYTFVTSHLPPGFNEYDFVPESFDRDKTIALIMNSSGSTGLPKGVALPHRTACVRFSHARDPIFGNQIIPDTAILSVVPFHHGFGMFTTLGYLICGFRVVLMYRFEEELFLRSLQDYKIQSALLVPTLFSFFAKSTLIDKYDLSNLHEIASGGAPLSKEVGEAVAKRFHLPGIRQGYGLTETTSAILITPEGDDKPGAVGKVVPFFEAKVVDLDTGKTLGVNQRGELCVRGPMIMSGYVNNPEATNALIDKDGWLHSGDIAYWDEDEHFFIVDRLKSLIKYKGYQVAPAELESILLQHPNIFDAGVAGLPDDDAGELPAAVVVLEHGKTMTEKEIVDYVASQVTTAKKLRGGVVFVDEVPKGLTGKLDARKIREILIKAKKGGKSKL
# [5] = target: T4, Oxysterols receptor LXR-beta (Homo sapiens, UniProt P55055); test: LXR agonists, Gal4 luciferase reporter, dose response, counter-screen for ssDAF-12 agonist project, cell-based, luminescence, HEK293, S. stercoralis campaign (AID 720737); assay type: functional; conditions: read-out: IC50 (the source's name)
# T4 sequence (P55055 whole entry): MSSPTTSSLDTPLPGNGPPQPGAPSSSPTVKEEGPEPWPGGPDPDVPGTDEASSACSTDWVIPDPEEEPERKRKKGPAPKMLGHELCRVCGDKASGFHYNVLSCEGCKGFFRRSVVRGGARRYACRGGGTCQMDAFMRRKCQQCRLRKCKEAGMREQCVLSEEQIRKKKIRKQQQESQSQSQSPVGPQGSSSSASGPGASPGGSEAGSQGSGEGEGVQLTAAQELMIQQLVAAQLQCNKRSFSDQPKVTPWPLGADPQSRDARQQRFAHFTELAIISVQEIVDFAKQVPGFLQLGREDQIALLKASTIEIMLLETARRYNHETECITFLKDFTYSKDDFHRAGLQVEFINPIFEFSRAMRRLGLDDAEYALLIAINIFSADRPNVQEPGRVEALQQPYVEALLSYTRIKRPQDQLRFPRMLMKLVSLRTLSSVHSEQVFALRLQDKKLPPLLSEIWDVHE
# [6] = Luminescence-based cell-based high throughput dose response assay to identify activators of the DAF-12 from the parasite S. stercoralis (ssDAF-12).; assay type: functional
# [7] = target: Protein-tyrosine kinase 2-beta (Homo sapiens, UniProt Q14289);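 further: potency of inhibitors of PYK2 kinase phosphorylation of poly-GT substrate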
# HT-1080 = test: cytotoxicity in HT1080 fibrosarcoma cells, cell-based, fluorescence readout (AID 620); assay type: functional; conditions: Homo sapiens
# [8] = target: T5, Mannose-6-phosphate isomerase (Homo sapiens, UniProt P34949); test: inhibitors of human PMI, primary screen, biochemical, fluorescence intensity, coupled assay (AID 1209)
# T5 sequence (P34949 whole entry): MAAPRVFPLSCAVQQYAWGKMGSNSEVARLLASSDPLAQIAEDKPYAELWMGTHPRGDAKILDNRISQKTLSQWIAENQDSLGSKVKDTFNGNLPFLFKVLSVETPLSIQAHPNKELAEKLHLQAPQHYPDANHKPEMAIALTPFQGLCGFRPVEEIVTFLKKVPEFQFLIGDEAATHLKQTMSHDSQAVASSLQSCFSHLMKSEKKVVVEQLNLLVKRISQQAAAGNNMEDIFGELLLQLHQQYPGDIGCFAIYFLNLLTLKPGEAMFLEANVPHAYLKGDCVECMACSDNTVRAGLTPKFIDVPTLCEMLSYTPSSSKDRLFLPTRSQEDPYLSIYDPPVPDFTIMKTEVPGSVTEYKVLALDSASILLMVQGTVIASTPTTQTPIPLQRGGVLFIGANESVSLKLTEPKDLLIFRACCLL
# [9] = target: T6, Low molecular weight phosphotyrosine protein phosphatase (Homo sapiens, UniProt P24666); test: LMPTP phosphatase inhibitors, colorimetric pNPP readout, dose response, orthogonal assay, biochemical, absorbance, pNPP substrate, LMPTP-A isoform, set 2 (AID 743308); assay type: functional
# T6 sequence (P24666 whole entry): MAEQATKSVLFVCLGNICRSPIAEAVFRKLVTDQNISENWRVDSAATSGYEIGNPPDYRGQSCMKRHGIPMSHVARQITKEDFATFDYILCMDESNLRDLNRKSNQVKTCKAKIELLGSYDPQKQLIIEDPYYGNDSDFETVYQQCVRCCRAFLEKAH
# [10] = target: T6, Low molecular weight phosphotyrosine protein phosphatase; test: LMPTP phosphatase inhibitors, dose response, biochemical, OMFP substrate, fluorescence intensity, set 2 (AID 743307); assay type: functional
# [11] = target: T7, Aryl hydrocarbon receptor (Homo sapiens, UniProt P35869); test: Luminescence-based cell-based high throughput dose response assay for activators of the Aryl Hydrocarbon Receptor (AHR). [Related pubchem assays: 2796 (Primary screen (AHR activators in singlicate)), 2845 (Confirmation screen (AHR activators in triplicate)), 434939 (Counterscreen (PXR activators in triplicate)), 2804 (Summary (AHR activators))]; assay type: ADME
# T7 sequence (P35869 whole entry): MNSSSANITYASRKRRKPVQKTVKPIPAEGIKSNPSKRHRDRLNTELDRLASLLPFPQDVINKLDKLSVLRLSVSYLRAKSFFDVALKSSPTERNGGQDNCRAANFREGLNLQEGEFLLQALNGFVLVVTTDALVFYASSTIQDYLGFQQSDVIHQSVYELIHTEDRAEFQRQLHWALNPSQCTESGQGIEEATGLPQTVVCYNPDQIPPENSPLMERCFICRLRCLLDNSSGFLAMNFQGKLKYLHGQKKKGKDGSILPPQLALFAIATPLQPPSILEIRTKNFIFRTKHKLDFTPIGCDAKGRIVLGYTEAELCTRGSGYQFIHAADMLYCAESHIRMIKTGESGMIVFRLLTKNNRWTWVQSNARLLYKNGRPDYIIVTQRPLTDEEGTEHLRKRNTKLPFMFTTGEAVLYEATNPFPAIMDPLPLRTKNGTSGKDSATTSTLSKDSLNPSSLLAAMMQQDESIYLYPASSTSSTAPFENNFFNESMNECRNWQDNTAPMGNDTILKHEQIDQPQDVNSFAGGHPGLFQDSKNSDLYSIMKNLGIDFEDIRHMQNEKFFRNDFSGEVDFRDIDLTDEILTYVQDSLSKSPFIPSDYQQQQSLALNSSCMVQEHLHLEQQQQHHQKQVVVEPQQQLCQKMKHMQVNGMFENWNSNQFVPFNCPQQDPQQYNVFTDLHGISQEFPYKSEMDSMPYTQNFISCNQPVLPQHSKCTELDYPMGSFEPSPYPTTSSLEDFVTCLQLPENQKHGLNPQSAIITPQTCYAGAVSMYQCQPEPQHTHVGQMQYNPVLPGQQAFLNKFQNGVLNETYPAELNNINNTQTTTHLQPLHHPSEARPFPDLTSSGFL
# [12] = growth suppression of PTEN-null colon cells, dose response, cell-based, HCT116 PTEN knockout (AID 1047); assay type: functional;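 further: HCT116 colon tumor cells with PTEN knocked out; cells exposed to compound for 60 hours before readout; potency for loss of cell viability measured by luminescence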
# [13] = growth suppression of beta-catenin-knockout colon cells, dose response, cell-based, HCT116, human colon tumor (AID 1045); assay type: functional;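 further: HCT116 colon tumor cells with beta catenin knocked out; cells exposed to compound for 60 hours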
# [14] = A Cell Based Secondary Assay To Explore Cytotoxicity of Compounds that Sensitize Mycobacterium Tuberculosis to Beta-Lactam Antibiotics.; assay type: functional
# H9c2 = test: cells; assay type: functional, cell-based; conditions: Rattus norvegicus, H9c2, Myocardium;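 further: confirmatory concentration-response retest of ultra-high-throughput screening hits for modulation of myocardial damage; cell death induced by hydrogen peroxide oxidative stress; compound pretreatment for 60 min then peroxide exposure for 2 h; potency is for protecting the cells against peroxide damage rather than for killing them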
# [15] = cytotoxicity in HPDE-C7 cells, cell-based, fluorescence, HTS (AID 430); assay type: functional; conditions: Homo sapiens
# [16] = cytotoxicity in KRAS-transformed pancreatic duct cells, primary screen, cell-based, fluorescence, HTS (AID 431); assay type: functional; conditions: Homo sapiens;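 further: cell line used: HPDE-C7K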
# [17] = target: Lysosomal acid glucosylceramidase (Homo sapiens, UniProt P04062); test: Dose response cell-based high throughput screening assay to identify enhancers of beta-glucosidase activity. [Related pubchem assays: 784 ]; assay type: functional
# Lysosomal acid glucosylceramidase, sequence (P04062 whole entry): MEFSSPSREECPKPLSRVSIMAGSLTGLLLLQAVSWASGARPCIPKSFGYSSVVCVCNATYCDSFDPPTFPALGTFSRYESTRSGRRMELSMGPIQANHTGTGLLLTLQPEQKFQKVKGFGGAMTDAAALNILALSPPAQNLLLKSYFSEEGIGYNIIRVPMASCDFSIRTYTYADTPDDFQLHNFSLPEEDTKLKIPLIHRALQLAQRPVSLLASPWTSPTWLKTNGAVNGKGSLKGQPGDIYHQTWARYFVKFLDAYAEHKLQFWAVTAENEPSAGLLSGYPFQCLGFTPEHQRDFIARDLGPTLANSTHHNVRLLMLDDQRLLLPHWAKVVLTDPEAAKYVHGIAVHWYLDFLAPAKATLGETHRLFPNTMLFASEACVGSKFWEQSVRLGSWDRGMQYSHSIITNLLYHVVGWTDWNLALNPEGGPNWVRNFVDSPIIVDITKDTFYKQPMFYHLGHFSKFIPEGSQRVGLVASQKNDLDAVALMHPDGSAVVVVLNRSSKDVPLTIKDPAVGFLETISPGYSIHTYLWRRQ
# [18] = target: Peroxisome proliferator-activated receptor gamma/Nuclear receptor coactivator 1 (Homo sapiens, UniProt P37231); assay type: functional;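 further: agonist potency as compounds enhance coactivator SRC-1 recruitment to PPARgamma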
# [19] = target: Peroxisome proliferator-activated receptor gamma/Nuclear receptor coactivator 2 (Homo sapiens, UniProt P37231); assay type: functional;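 further: agonist potency for raising coactivator recruitment to the receptor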
# [20] = target: Peroxisome proliferator-activated receptor gamma/Nuclear receptor coactivator 3 (Homo sapiens, UniProt P37231); assay type: functional;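 further: agonist potency for raising coactivator recruitment to the receptor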
# Mucolipin-3 = Mucolipin-3 (Homo sapiens, UniProt Q8TDD5); test: Dose response cell-based high-throughput screening assay for agonists of the transient receptor potential channel ML3 (TRPML3). [Related pubchem assays: 1526, 1424, 1448 ]; assay type: functional
# Mucolipin-3, sequence (Q8TDD5 whole entry): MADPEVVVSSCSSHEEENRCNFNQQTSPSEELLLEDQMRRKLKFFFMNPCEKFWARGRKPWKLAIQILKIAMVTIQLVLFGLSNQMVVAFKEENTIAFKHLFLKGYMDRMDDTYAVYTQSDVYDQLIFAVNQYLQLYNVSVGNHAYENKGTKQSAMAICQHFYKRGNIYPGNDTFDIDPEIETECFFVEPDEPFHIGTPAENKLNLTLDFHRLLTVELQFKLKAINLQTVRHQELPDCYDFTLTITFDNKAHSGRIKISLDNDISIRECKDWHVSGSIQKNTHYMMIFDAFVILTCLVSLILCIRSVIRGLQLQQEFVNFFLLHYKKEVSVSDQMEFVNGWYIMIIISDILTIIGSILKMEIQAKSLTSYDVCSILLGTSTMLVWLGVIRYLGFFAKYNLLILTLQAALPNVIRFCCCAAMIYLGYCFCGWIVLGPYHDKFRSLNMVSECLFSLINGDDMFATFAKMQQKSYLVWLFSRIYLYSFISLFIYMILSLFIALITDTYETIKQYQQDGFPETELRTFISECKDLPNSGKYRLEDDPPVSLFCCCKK
# Ion channel NompC = Ion channel NompC (Danio rerio, UniProt Q7T1G6); test: Fluorescence counterscreen assay for TRPML3 agonists: dose response cell-based high-throughput screening assay to identify agonists of the transient receptor potential channel N1 (TRPN1). [Related pubchem assays: 1526, 1424, 1448 ]; assay type: functional
# [21] = tested on: Streptococcus sp. 'group A'; test: growth inhibition of control SK(-) GAS strain, dose response, counter-screen for streptokinase expression inhibitor project, luminescence, kanamycin, BacTiterGlo, confirmation (AID 1900); assay type: functional, organism-based
# Streptococcus = test: Group A Streptococcus viability loss, dose response, counter-screen for streptokinase expression inhibitor project, luminescence, BacTiterGlo (AID 1915); assay type: functional, organism-based;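 further: potency for reduction of bacterial viability or growth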
# [22] = target: Transitional endoplasmic reticulum ATPase (Homo sapiens, UniProt P55072, C522A); test: Luminescence counterscreen assay for p97 inhibitors: dose response biochemical high throughput screening assay to identify inhibitors of the C522A mutant p97 ATPase: synthesized compounds. [Related pubchem assays: 1481, 1517, 1551 ]
# Transitional endoplasmic reticulum ATPase (Homo sapiens, UniProt P55072, C522A), sequence (P55072 2-806 C522A limits assumed): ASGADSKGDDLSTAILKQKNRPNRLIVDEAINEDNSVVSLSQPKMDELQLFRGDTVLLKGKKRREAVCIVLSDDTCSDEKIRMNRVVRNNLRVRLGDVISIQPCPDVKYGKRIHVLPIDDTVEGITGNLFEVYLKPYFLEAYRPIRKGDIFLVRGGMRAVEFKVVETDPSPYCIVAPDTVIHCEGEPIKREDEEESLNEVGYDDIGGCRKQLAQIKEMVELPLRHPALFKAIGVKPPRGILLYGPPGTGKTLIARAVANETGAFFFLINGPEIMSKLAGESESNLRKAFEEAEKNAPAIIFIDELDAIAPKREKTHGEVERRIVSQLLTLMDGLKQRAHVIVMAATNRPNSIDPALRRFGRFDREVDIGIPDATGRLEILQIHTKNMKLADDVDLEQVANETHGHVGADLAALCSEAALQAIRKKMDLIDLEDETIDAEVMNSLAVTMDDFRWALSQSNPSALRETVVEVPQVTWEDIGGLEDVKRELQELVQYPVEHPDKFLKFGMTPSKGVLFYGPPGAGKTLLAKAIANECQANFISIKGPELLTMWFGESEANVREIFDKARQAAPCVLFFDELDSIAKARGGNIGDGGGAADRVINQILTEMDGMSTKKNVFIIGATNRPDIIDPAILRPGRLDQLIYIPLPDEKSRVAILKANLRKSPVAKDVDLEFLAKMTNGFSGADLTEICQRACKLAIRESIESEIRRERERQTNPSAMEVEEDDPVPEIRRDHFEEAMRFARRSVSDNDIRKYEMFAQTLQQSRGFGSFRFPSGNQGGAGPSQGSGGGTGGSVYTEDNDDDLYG
# [23] = target: Transitional endoplasmic reticulum ATPase (Homo sapiens, UniProt P55072); test: Luminescence dose response biochemical high throughput screening assay for inhibitors of the p97 ATPase: synthesized compounds. [Related pubchem assays: 1481, 1517 ]
# Transitional endoplasmic reticulum ATPase (Homo sapiens, UniProt P55072), sequence (P55072 whole entry): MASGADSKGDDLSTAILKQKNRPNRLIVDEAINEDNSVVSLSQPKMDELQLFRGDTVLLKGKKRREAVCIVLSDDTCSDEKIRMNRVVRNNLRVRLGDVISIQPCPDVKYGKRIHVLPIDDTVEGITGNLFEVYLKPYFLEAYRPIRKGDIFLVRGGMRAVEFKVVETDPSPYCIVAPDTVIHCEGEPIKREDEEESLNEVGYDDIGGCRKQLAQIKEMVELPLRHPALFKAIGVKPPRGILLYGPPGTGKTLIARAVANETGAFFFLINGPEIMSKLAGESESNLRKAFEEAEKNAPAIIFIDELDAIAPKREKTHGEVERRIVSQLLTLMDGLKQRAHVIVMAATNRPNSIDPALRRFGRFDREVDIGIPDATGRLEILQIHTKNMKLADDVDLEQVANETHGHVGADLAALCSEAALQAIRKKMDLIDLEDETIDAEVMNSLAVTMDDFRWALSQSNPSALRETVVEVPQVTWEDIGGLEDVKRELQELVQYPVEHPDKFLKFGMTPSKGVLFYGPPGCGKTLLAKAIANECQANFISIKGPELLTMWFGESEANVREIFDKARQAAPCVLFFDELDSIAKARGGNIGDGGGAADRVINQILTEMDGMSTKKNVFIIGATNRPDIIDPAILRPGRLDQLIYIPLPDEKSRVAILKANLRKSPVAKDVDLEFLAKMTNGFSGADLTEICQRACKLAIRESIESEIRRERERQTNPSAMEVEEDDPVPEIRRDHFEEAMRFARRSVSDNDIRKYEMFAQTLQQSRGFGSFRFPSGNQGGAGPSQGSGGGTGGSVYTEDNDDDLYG
# [24] = target: Neuropeptide Y receptor type 1 (Homo sapiens, UniProt P25929); assay type: functional;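 further: HEK293 cells with a CNG channel challenged with NPY then isoproterenol; potency as antagonist that reverses NPY suppression of cAMP signal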
# Neuropeptide Y receptor type 1, sequence (P25929 whole entry): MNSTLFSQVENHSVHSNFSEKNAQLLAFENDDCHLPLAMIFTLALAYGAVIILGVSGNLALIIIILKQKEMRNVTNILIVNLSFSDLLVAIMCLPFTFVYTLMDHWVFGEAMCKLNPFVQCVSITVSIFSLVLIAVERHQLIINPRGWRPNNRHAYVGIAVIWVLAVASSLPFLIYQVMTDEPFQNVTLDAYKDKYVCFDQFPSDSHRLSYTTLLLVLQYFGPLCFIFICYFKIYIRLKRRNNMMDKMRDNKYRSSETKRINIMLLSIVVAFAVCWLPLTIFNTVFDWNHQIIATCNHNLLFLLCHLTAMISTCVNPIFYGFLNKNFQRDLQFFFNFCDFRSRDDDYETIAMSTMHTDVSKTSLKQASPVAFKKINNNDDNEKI
# [25] = target: Neuropeptide Y receptor type 2 (Homo sapiens, UniProt P49146); assay type: functional, cell-based;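 further: HEK293 cells expressing the receptor and a CNG channel; stimulus was NPY near EC95 followed by isoproterenol to raise cAMP; antagonist potency measured as restoring cAMP signal that NPY suppresses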
# Neuropeptide Y receptor type 2, sequence (P49146 whole entry): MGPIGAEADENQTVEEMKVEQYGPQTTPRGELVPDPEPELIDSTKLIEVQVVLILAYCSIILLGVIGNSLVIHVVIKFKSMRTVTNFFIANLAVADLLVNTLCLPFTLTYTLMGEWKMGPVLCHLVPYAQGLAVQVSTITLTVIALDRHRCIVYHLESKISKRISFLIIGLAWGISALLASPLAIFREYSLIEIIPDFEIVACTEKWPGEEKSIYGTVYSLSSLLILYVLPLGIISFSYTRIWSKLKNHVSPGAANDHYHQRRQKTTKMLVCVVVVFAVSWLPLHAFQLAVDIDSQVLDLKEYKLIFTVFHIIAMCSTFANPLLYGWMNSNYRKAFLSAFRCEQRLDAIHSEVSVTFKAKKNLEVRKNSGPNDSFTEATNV
# [26] = target: Glyceraldehyde-3-phosphate dehydrogenase (Homo sapiens, UniProt P04406)
# Glyceraldehyde-3-phosphate dehydrogenase, sequence (P04406 whole entry): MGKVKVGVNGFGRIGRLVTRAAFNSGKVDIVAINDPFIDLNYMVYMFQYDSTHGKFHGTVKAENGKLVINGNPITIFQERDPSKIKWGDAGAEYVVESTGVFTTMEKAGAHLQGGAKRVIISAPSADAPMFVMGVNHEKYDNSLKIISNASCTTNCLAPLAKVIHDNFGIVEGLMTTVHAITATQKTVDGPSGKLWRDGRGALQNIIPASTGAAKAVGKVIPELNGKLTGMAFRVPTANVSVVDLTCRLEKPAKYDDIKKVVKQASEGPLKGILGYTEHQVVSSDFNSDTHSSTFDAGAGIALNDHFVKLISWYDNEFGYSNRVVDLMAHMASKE
structure (smiles),measurement,setting,value
COc1ccc2c(c1)c(=O)oc1cc(OCC(=O)N3CCc4ccccc4C3)ccc12,IC50,Bcl-2-like protein 10,29.8 µM (active)
same,IC50,Estrogen receptor beta [1],> 50 µM (not active)
same,IC50,[2],2.9 µM (active)
same,IC50,Estrogen receptor beta [3],5.58 µM (active)
O=C1c2ccccc2C(=O)C1c1ccnc2ccccc12,EC50,[4],3.42 µM (active)
same,EC50,[5],> 67.5 µM (inactive)
same,IC50,[6],> 67.5 µM (inactive)
same,IC50,[7],4.75 µM (active)
same,EC50,HT-1080,> 50 µM (not active)
Cc1ccc([N+](=O)[O-])c(C)[n+]1C,IC50,[8],> 50 µM (not active)
c1ccc(-c2cc(NCCCN3CCOCC3)c3ccccc3n2)cc1,IC50,[9],12.6 µM (active)
same,IC50,[10],7.68 µM (active)
Cc1ccc2cc3c(NC(=O)CC(C)C)nn(C)c3nc2c1,EC50,[11],0.476 µM (active)
CCOC(=O)C1=C(C)N=c2s/c(=C\c3ccncc3)c(=O)n2C1c1ccc2c(c1)OCO2 (stereo not drawn),EC50,[12],10.5 µM (active)
same,EC50,[13],10.2 µM (active)
same,CC50,[14],> 40 µM (active)
same,IC50,H9c2,> 79 µM (inactive)
same,EC50,[15],16.3 µM (active)
same,EC50,[16],11 µM (active)
CCOC(=O)c1oc2ccccc2c1N,EC50,[11],7.43 µM (active)
CCOC(=O)NC(CC(=O)O)c1ccc(OCC)cc1 (stereo not drawn),EC50,[17],> 50 µM (not active)
O=C1c2cccc(OCC(=O)N3CCCc4ccccc43)c2CCN1Cc1ccccc1,EC50,[18],> 79.4 µM (not active)
same,EC50,[19],> 79.4 µM (not active)
same,EC50,[20],> 79.4 µM (not active)
Cc1noc(C)c1CSCC(=O)OCC(=O)Nc1sccc1C#N,IC50,Estrogen receptor beta [1],15.8 µM (active)
same,IC50,Estrogen receptor beta [3],< 77 µM (not active)
CCOc1ccccc1CNS(=O)(=O)c1ccc2nc(O)sc2c1,EC50,[17],> 10 µM (not active)
COc1cccc(CN(Cc2ccco2)C(c2ccc(F)cc2)c2nnnn2C(C)(C)C)c1 (stereo not drawn),EC50,Mucolipin-3,> 29.9 µM (not active)
same,EC50,Ion channel NompC,> 29.9 µM (not active)
COc1ccc(C(=O)/C=C/c2ccc(O)cc2)c(O)c1CC=C(C)C,EC50,[21],2.71 µM (active)
same,CC50,[14],> 40 µM (active)
same,EC50,Streptococcus,3.01 µM (active)
Cc1cc(-c2csc(Nc3ccc(C#N)cc3)n2)c(C)n1Cc1ccccc1,IC50,[22],> 50 µM (not active)
same,IC50,[23],> 50 µM (not active)
COC(=O)c1ccc(CSc2nc3sc4c(c3c(=O)n2C)CCCC4)o1,IC50,[24],6.95 µM (active)
same,IC50,[25],6.21 µM (active)
CN(C)Cc1ccccc1Sc1cccc2ccccc12,IC50,[24],6.03 µM (active)
same,IC50,[25],9.22 µM (active)
C[C@@H]1CN(C2=C(Cl)C(=O)N(c3ccc(C(F)(F)F)cc3)C2=O)CCN1,IC50,[26],> 50 µM (inconclusive)
c1ccc(-c2nc(N3CCCCCC3)c3ccccc3n2)cc1,IC50,[9],> 80 µM (inactive)
same,IC50,[10],72.2 µM (inactive)
CCOC(=O)/C(C#N)=C/c1sc2ccccc2c1-c1ccccc1,IC50,[22],> 50 µM (not active)
same,IC50,[23],> 50 µM (not active)
